Measured values from patent US20210340130A1, “Compositions and methods for treating attention deficit disorders” (priority 2016, published 2021).

Tests used:
[1] = Phase 1 studies (safety, tolerability, pharmacokinetics); format: in vivo
64 GPCRs = experiment: Cell-based functional GPCR assays (Table 4.2.2-1); conditions: agonist at 30 μM, antagonist at 37.5 μM; 64 functional GPCR assays
Experimental: Additional studies involving G-protein coupled receptor assays were conducted for CX1739 to further illustrate the scope and flexibility of binding activity profiling available for ampakine screening according to the invention. CX1739 was evaluated in a second broad in vitro pharmacology screen, comprising cell-based functional G-protein coupled receptor assays for 64 GPCRs, identified in Table 4.2.2-1 below.

[2] = test system: non-selective alpha1 adrenergic receptor; experiment: Radioligand binding, alpha1 adrenergic receptor; conditions: 100 μM

| Structure (SMILES) | absorption ([1]; human) | half-life ([1]; human, in vivo, read-out: elimination half-life (t1/2)) | Tmax ([1]; human, in vivo, read-out: time-to-maximum concentration (tmax)) | tolerability in healthy volunteers ([1]; in vivo) | GPCR agonist and antagonist activity (64 GPCRs) | inhibition of binding of a reference ligand [2] |
| --- | --- | --- | --- | --- | --- | --- |
| O=C(c1ccc2nonc2c1)N1CCOCC1 [CX717, 1-(benzofurazan-5-ylcarbonyl)morpholine] | dose-proportional manner | 9 to 10 h | 4 to 5 h | well-tolerated with no serious AEs |  |  |
| CN(C(=O)c1ccc2nonc2c1)C1CCOCC1 [CX1739, N-Methyl-N-tetrahydro-2H-pyran-4-yl-[2,1,3]-benzoxadiazole-5-carboxamide] |  |  |  |  | did not exhibit any significant agonist or antagonist activity | 67% |
